The record followed here is ChEMBL document CHEMBL1158891, “Chemical and biological investigation of the fungus Pulveroboletus ravenelii” (J Nat Prod, 2003).

In brackets after ≈: the same amount, converted by molar mass.

A short description of assay [1]: Inhibition of 7,12-dimethylbenz[a]anthracene-induced preneoplastic lesions in BALB/c mouse mammary gland culture after 1 to 10 days. Type of assay: functional, tissue-based.
Assay [2] addresses T1, Prostaglandin G/H synthase 2 (Homo sapiens, UniProt P35354).
T1 sequence (P35354 whole entry): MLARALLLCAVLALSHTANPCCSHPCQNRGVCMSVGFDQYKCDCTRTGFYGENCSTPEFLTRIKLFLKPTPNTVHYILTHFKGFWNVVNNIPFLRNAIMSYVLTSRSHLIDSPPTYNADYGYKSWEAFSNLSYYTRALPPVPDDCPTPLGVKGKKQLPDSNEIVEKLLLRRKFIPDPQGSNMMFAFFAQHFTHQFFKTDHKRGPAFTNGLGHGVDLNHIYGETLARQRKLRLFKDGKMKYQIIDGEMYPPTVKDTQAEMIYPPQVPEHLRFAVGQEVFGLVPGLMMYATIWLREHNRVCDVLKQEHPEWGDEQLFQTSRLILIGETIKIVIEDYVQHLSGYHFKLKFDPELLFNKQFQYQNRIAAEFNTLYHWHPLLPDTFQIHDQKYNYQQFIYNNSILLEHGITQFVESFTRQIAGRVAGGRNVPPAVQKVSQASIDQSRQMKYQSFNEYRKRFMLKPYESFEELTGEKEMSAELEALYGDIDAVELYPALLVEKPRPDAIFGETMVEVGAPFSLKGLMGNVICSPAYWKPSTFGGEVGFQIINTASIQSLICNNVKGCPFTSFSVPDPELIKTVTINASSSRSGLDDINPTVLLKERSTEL
Kind of assay: Inhibition of COX2.

Assay [3] addresses Prostaglandin G/H synthase 1 (Homo sapiens, UniProt P23219). Kind of assay: Inhibition of COX1.
A further assay has as its system Staphylococcus aureus. Nature of the assay: Antimicrobial activity against Staphylococcus aureus. Type of assay: functional, organism-based.

Prostaglandin G/H synthase 1, sequence (P23219 whole entry): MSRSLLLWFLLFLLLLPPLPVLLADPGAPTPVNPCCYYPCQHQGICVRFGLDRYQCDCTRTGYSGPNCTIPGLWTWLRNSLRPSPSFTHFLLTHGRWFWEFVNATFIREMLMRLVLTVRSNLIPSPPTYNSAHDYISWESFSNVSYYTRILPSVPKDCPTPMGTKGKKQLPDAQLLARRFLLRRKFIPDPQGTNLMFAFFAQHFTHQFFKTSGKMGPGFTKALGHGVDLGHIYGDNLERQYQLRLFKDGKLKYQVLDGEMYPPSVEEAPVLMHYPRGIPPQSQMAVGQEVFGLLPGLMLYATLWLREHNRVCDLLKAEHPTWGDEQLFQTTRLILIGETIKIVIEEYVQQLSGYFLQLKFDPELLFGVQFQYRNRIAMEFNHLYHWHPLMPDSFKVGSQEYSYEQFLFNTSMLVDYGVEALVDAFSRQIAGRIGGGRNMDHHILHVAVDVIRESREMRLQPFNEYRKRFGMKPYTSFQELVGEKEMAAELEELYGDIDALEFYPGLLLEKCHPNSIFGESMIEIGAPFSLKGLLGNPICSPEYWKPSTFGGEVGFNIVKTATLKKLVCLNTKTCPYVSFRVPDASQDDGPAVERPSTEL

In assay [1], `COC(=O)[C@@H](c1ccccc1)[C@@H](C1=C(O)/C(=C/c2ccccc2)OC1=O)c1ccccc1` [PULVERAVEN A] yielded an IC50 of 6 µg/mL (≈ 14.1 µM).

For the compound `COC(=O)[C@@H](c1ccccc1)[C@H](C1=C(O)/C(=C/c2ccccc2)OC1=O)c1ccccc1` [PULVERAVEN B], the IC50 is > 234 µM in assay [2], 0.8 µg/mL (≈ 1.88 µM) in assay [1] and > 234 µM in assay [3].

Take `COC(=O)/C(=C1/OC(=O)C(c2ccccc2)=C1O)c1ccccc1` [VULPINIC ACID]: the values for the IC50 (in the assay with Staphylococcus aureus; in assay [1]; in assay [3]) were 20 µg/mL (≈ 62.1 µM), > 10 µg/mL and 676 µM, respectively.

The term IC50 denotes the concentration that inhibits the measured activity by half.
